Assay results reported in patent publication US20080076729A1, “Interferon-beta gene therapy using an improved, regulated expression system” (Schering Aktiengesellachaft, priority 2005, published 2008).

Tested on: Mx1 RNA in murine L929 cells
Assay: Mx1 RNA induction in vitro in L929 cells (TaqMan RT-PCR)
Format: cell-based
Procedure: FIG. 5 illustrates Mx1 RNA induction in vitro (in L929 cells) by mIFN-β. L929 cells were seeded at 5×10^5 cells in 6 well plates and stimulated with increasing amounts of purified recombinant mIFN-β protein. Four hours after treatment the cells were harvested, RNA isolated, and Mx1 RNA quantitated by TaqMan analysis. Mx1 RNA expression is plotted as the fold increase relative to GAPDH RNA.
• A. Development of mIFN-β Biomarkers: For higher sensitivity in detection of murine IFN-β (mIFN-β) activity in vivo, biomarkers for mIFN-β activity were identified in mice after injection of mIFN-β protein or mIFN-β encoded gene therapy vectors. […] In the present study, the expression of the MxA mouse homologue, Mx1, (see e.g., Hug, H et al. Mol Cell Biol 8: 3065-79; Pavlovic, J (1993) Ciba Found Symp 176: 233-43) isolated from murine peripheral blood monocytes (PBMC's) was used to detect the presence of biologically active mIFN-β. • A quantitative PCR/RT-PCR assay was developed to quantitate the levels of Mx1 mRNA in murine PBMC's. […] The samples were analyzed with an Mx1-specific probe/primer combination. Mx1 expression was normalized to GAPDH expression measured in parallel using a standard assay from ABI. • The assay was validated in vitro by examining Mx1 RNA induction in murine L929 cells treated with purified recombinant mIFN-β protein (FIG. 5). […]

Substance: mIFN-β: purified recombinant murine interferon-beta protein
- EC50 of Mx1 RNA induction (4 hours treatment): approximately 50 pg/ml
- increase in the level of Mx1 RNA (relative to GAPDH): 100 fold
